# Laboratory results from patent US4317770A, “D-amino acid analogs of beta-endorphin” (Hoffmann-La Roche Inc., priority 1977, dated 1982).
# “Also recorded” adds a separate entry of the source.
# Tests used:
# mice [1] = assay: analgesic potency in mice, tail-flick method, icv injection; format: in vivo, mouse; details: for AD50 / Relative Potency (analgesic potency) / analgesic activity: mice, tail-flick; for AD50: 95% confidence limits in parentheses; for Relative Potency (analgesic potency): calculated on molar basis using the AD50 of βc-endorphin as 100%; for order of activity in the mouse tail flick method: human endorphin analogs vs camel endorphin analogs, route not stated
# Experimental: (§1) The analgesic properties of β-endorphin and its analogs were also assessed in mice by the tail-flick method of D'Amour and Smith, supra. The peptides, dissolved in saline, were injected either icv in a volume of 5 μl, according to the method described by Haley and McCormick, Brit. J. Pharmacol. 12, 12 (1957) or iv via the tail vein. To evaluate this analgesic response, a control latency (T0) was obtained from the mean of two latencies determined prior to drug injections, and the test latencies (T1) were determined at various times after injection for each animal. "Percent analgesic" was calculated as [(T1 -T0)/[…]]×100, where the cut off time (T2) was 10 sec.
# [2] = cited from earlier work; for in vivo analgesic activity (duration): injected intracranially / centrally
# mice [3] = assay: analgesic potency in mice, tail-flick method, iv injection; format: in vivo, mouse; details: for inhibition of tail-flick response: iv
# Experimental: (§2) The opiate activities of the analogs relative to βc -endorphin were measured in vitro in the guinea pig ileum (Brit. J. Pharmacol. 39, 398 (1970)) and in vivo by icv and iv injections using the tail-flick method (D'Amour and Smith, J. Pharmacol. Exp. Ther. 72,74 (1941). The results are summarized in Tables 2 and 3.
# as §1
# [4] = tested on: myenteric plexus longitudinal muscle preparation from guinea pig ileum; assay: opiate activity, guinea pig ileum assay (electrically stimulated); format: cell-based; details: for IC50: in vitro; for Relative Potency: relative to βc-endorphin = 100; for order of activity in the guinea pig ileum assay: human endorphin analogs vs camel endorphin analogs
# Experimental: as §2
# The opiate activity was assayed in vitro by electrically stimulated myenteric plexus longitudinal muscle preparation from guinea pig ileum by the method of Kosterlitz et al., supra.
# [5] = injected into the peripheral system; cited from earlier work
# leucine aminopeptidase = details: compared with enkephalin; cited from earlier work
compound,measurement,setting,value
"CN1CC[C@]23c4c5ccc(O)c4O[C@H]2[C@@H](O)C=C[C@H]3[C@H]1C5.O=S(=O)(O)O [Morphine sulfate, reference compound]",AD50,mice [1]; icv,0.42 (0.36-0.49) μg/25 g mouse
CC(C)C[C@H](NC(=O)[C@H](Cc1ccccc1)NC(=O)CNC(=O)CNC(=O)[C@@H](N)Cc1ccc(O)cc1)C(=O)O [enkephalin],in vivo analgesic activity (duration),[2],short duration
[D-Ala^2 ]-enkephalin,in vivo analgesic activity (duration),[2],long-lasting analgesia
[D-Ala^2 ]-β-enkephalinamide,in vivo analgesic activity (duration),[2],long-lasting analgesia
same,analgesic activity compared with enkephalin,"[2]; relative to enkephalin, route not stated at the place",greater analgesic activity
[D-Ala^2 ]-βc -endorphin [[D-Ala^2]-βc -EP],inhibition of tail-flick response,mice [3]; 25.5 mg/kg,not active
same,activity in in vitro assay relative to parent molecule,[4]; guinea pig ileum,43%
same,IC50,[4]; guinea pig ileum,63 nM
same,Relative Potency,[4],43
same,Relative Potency (analgesic potency),mice [1],100.0%
same,Relative Potency (analgesic potency),mice [1]; listed as [D-Ala^2 ]-βc -endorphin,100%
same,antagonism of analgesic response by naloxone,"mice [1]; icv, doses of 0.11 to 0.42 μg",blocked by naloxone
same,duration of analgesic response,"mice [1]; icv, doses of 0.11 to 0.42 μg",30 to 90 min
same,antagonism of analgesic response by naloxone,"mice [1]; icv, higher dose",also blocked by naloxone
same,duration of response at higher dose,"mice [1]; icv, higher dose",prolonged
same,analgesic activity,mice [1]; icv,little alteration in analgesic activity
same,analgesic activity,"mice [1]; icv, listed as [D-Ala^2 ]-β-endorphin",most significant analgesic activity; also recorded: equipotent to βc -endorphin; also recorded: dose-related increase in analgesic response
same,AD50,mice [1]; icv,0.11 (0.08-0.17) μg/25 g mouse
[D-Ala^2 ]-βh -endorphin,order of activity in the guinea pig ileum assay,[4],same order of activity
same,order of activity in the mouse tail flick method,mice [1],same order of activity
[D-Met^5 ]-βc -endorphin [[D-Met^5]-βc -EP],inhibition of tail-flick response,mice [3]; even at 120 mg/kg,not active
same,IC50,[4]; guinea pig ileum,660 nM
same,Relative Potency,[4],4
same,Relative Potency (analgesic potency),mice [1],1.0%
same,analgesic activity,mice [1]; icv,still possesses analgesic activity
same,AD50,mice [1]; icv,11.48 (7.17-18.36) μg/25 g mouse
[D-Met^5 ]-βh -endorphin,order of activity in the guinea pig ileum assay,[4],same order of activity
same,order of activity in the mouse tail flick method,mice [1],same order of activity
[D-Phe^4 ]-βc -endorphin [[D-Phe^4]-βc -EP],IC50,[4]; guinea pig ileum,670 nM
same,Relative Potency,[4],4
same,Relative Potency (analgesic potency),mice [1],< 0.3%
same,behavioural effect (hyperreactivity),"mice [1]; icv, doses up to 43 μg",hyperreactivity to touch or vocal stimulation
same,inhibition of tail-flick response,"mice [1]; icv, doses up to 43 μg",not active
same,AD50,mice [1]; icv,> 43 μg/25 g mouse
[D-Phe^4 ]-βh -endorphin,order of activity in the guinea pig ileum assay,[4],same order of activity
same,order of activity in the mouse tail flick method,mice [1],same order of activity
[D-Tyr^1 ]-βc -endorphin [[D-Tyr^1]-βc -EP],IC50,[4]; guinea pig ileum,2900 nM
same,Relative Potency,[4],≤ 1
same,Relative Potency (analgesic potency),mice [1],0.5%
same,AD50,mice [1]; icv,22.5 (13.4-37.8) μg/25 g mouse
[D-Tyr^1 ]-βh -endorphin,order of activity in the guinea pig ileum assay,[4],same order of activity
same,order of activity in the mouse tail flick method,mice [1],same order of activity
β-endorphin,duration of action,"mice [3]; intravenous, comparison of β-endorphin with D-Ala^2 analog",longer than its D-Ala^2 analog
same,AD50,mice [3]; iv injection,9.4 mg/kg
same,analgesic activity after iv injection,mice [3]; iv injection,potent analgesic
same,"in vivo analgesic activity, peripheral injection",[5],displays in vivo analgesic activity when injected into the peripheral system
same,in vivo analgesic activity (duration),[2],long lasting
"βc -endorphin: β-endorphin having a sequence derived from camel; synthesized as control (YGGFMTSEKSQTPLVTLFKNAIIKNAHKKGQ; Beta-endorphin; UniProt P01203 1-31, looked up) [reference compound]",IC50,[4]; guinea pig ileum,27 nM
same,Relative Potency,[4],100
same,resistance to attack by leucine aminopeptidase,leucine aminopeptidase,substantially more resistant to attack by leucine aminopeptidase than is enkephalin
same,Relative Potency (analgesic potency),mice [1],100.0%
same,analgesic activity,mice [1]; icv,much more active than morphine
same,AD50,mice [1]; icv,0.11 (0.07-0.17) μg/25 g mouse
